Measurements: PubChem BioAssay AID330 (DTP/NCI, 2004)
Values joined by “and” are separate entries in the source; they are usually repeats but may differ in a detail not shown here. Equal entries are not always repeated. Toxic doses and inconclusive results are not listed. The calls were made as follows: active = survival T/C of 150% or more; inactive = T/C below 125% in these data. Peptide text beside a SMILES is read from it. * marks the point of attachment. Tos = Cc1ccc(S(=O)(=O)*)cc1; Bn = c1ccc(C*)cc1

Test system: P388 leukemia ip, CD2F1 mice, survival T/C
Experiment: NCI In Vivo Anticancer Drug Screen. Data for tumor model P388 Leukemia (intraperitoneal) in CD2F1 (CDF1) mice
Conditions: endpoint: median survival time, higher = longer survival
Method in brief: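 Mice carrying the transplanted tumor received test compound or vehicle. Survival was recorded in each group, and the value is the treated-group measurement divided by that of the vehicle-treated control group.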

[1] = dose: 100.0 mg/kg/injection, schedule: Q01DX009 (ip), vehicle: saline with Tween-80
[2] = dose: 200.0 mg/kg/injection, schedule: Q01DX009 (ip), vehicle: saline with Tween-80
[3] = dose: 50.0 mg/kg/injection, schedule: Q01DX005 (ip), vehicle: saline with Tween-80
[4] = dose: 100.0 mg/kg/injection, schedule: Q01DX005 (ip), vehicle: saline with Tween-80
[5] = dose: 200.0 mg/kg/injection, schedule: Q01DX005 (ip), vehicle: saline with Tween-80
[6] = dose: 60.0 mg/kg/injection, schedule: Q01DX005 (ip), vehicle: saline with Tween-80
[7] = dose: 120.0 mg/kg/injection, schedule: Q01DX005 (ip), vehicle: saline with Tween-80
[8] = dose: 240.0 mg/kg/injection, schedule: Q01DX005 (ip), vehicle: saline with Tween-80
[9] = dose: 50.0 mg/kg/injection, schedule: Q01DX009 (ip), vehicle: saline
[10] = dose: 100.0 mg/kg/injection, schedule: Q01DX009 (ip), vehicle: saline
[11] = dose: 200.0 mg/kg/injection, schedule: Q01DX009 (ip), vehicle: saline
[12] = dose: 50.0 mg/kg/injection, schedule: Q01DX009 (ip), vehicle: saline with Tween-80
[13] = dose: 50.0 mg/kg/injection, schedule: Q01DX005 (ip), vehicle: Klucel (hydroxypropylcellulose) (HPC)
[14] = dose: 100.0 mg/kg/injection, schedule: Q01DX005 (ip), vehicle: Klucel (hydroxypropylcellulose) (HPC)
[15] = dose: 200.0 mg/kg/injection, schedule: Q01DX005 (ip), vehicle: Klucel (hydroxypropylcellulose) (HPC)

Measured: T/C

CCCOc1ccc(C(C)c2cc3c(cc2OCC)OCO3)cc1 (centres undefined)
inactive: dose: 50.0 mg/kg/injection, schedule: Q01DX005 (ip), vehicle: Klucel + Tween-80 104 % of control | dose: 100.0 mg/kg/injection, schedule: Q01DX005 (ip), vehicle: Klucel + Tween-80 98 % of control | dose: 200.0 mg/kg/injection, schedule: Q01DX005 (ip), vehicle: Klucel + Tween-80 97 % of control

O=[N+]([O-])c1ccc(/C=N\N=C\c2ccco2)cc1
inactive: [1] 90 % of control | [2] 100 % of control | dose: 400.0 mg/kg/injection, schedule: Q01DX009 (ip), vehicle: saline with Tween-80 90 % of control

C=C1C(=O)OC2CC(C)CCC/C(CO)=C/C(OC(=O)/C(=C/CO)CO)C12 (centres undefined)
inactive: dose: 7.0 mg/kg/injection, schedule: Q01DX005 (ip), vehicle: saline 98 % of control | dose: 14.0 mg/kg/injection, schedule: Q01DX005 (ip), vehicle: saline 101 % of control | dose: 28.0 mg/kg/injection, schedule: Q01DX005 (ip), vehicle: saline 114 % of control

CCCCCCCCCC(=O)Oc1cccc2c1CC(C[Se]c1ccccc1)C(=O)O2 (centres undefined)
inactive: dose: 1.88 mg/kg/injection, schedule: Q01DX005 (ip), vehicle: saline with Tween-80 97 % of control | dose: 3.75 mg/kg/injection, schedule: Q01DX005 (ip), vehicle: saline with Tween-80 101 % of control | dose: 7.5 mg/kg/injection, schedule: Q01DX005 (ip), vehicle: saline with Tween-80 89 % of control and 91 % of control

Cc1ccc(S(=O)(=O)NC(CSCc2ccccc2)C(=O)NC(Cc2ccc(O)cc2)C(=O)O)cc1 (centres undefined) (Tos-Cys(Bn)-Tyr-OH; configuration not given here)
inactive: [3] 103 % of control | [4] 99 % of control | [5] 99 % of control

C[Si](C)(C)C#CC[Si](C)(C)C
inactive: [6] 97 % of control | [7] 100 % of control | [8] 106 % of control

CC(N)C(O)c1ccc(O)cc1 (centres undefined)
inactive: [9] 102 % of control and 108 % of control | [10] 101 % of control | [11] 101 % of control and 108 % of control | dose: 400.0 mg/kg/injection, schedule: Q01DX009 (ip), vehicle: saline 87 % of control and 89 % of control

CCOC(=O)C(Cc1c[nH]c2ccccc12)NCc1ccc(N(CCCl)CCCl)cc1 (centres undefined)
inactive: dose: 10.0 mg/kg/injection, schedule: Q01DX009 (ip), vehicle: saline with Tween-80 94 % of control | dose: 20.0 mg/kg/injection, schedule: Q01DX009 (ip), vehicle: saline with Tween-80 110 % of control | dose: 40.0 mg/kg/injection, schedule: Q01DX009 (ip), vehicle: saline with Tween-80 110 % of control | [12] 97 % of control | dose: 80.0 mg/kg/injection, schedule: Q01DX009 (ip), vehicle: saline with Tween-80 123 % of control | [1] 106 % of control

CC1Cn2c(Cc3ccccc3)nnc2S1 (centres undefined)
inactive: [6] 104 % of control | [7] 93 % of control | [8] 100 % of control

Nc1nc2c(ncn2C2OC(CO)C(O)C2O)c(=O)o1 (centres undefined)
inactive: [13] 106 % of control | [14] 112 % of control | [15] 116 % of control | dose: 400.0 mg/kg/injection, schedule: Q01DX005 (ip), vehicle: Klucel (hydroxypropylcellulose) (HPC) 111 % of control

O=c1c2ccccc2sc2c(CO)ccc(NCCCN3CCN(CCCNc4ccc(CO)c5sc6ccccc6c(=O)c45)CC3)c12
inactive: dose: 0.67 mg/kg/injection, schedule: Q01DX005 (ip), vehicle: saline with Tween-80 93 % of control | dose: 1.25 mg/kg/injection, schedule: Q01DX005 (ip), vehicle: saline with Tween-80 104 % of control | dose: 2.5 mg/kg/injection, schedule: Q01DX005 (ip), vehicle: saline with Tween-80 107 % of control | dose: 5.0 mg/kg/injection, schedule: Q01DX005 (ip), vehicle: saline with Tween-80 95 % of control | dose: 10.0 mg/kg/injection, schedule: Q01DX005 (ip), vehicle: saline with Tween-80 104 % of control | dose: 20.0 mg/kg/injection, schedule: Q01DX005 (ip), vehicle: saline with Tween-80 94 % of control | dose: 40.0 mg/kg/injection, schedule: Q01DX005 (ip), vehicle: saline with Tween-80 86 % of control and 95 % of control | dose: 80.0 mg/kg/injection, schedule: Q01DX005 (ip), vehicle: saline with Tween-80 90 % of control

COC1(OC)CCC(=O)N(Cc2ccccc2)c2cc(C)c(N(Cc3ccccc3)S(=O)(=O)c3ccc(C)cc3)cc2C1C (centres undefined)
inactive: dose: 12.5 mg/kg/injection, schedule: Q01DX005 (ip), vehicle: saline with Tween-80 95 % of control | dose: 25.0 mg/kg/injection, schedule: Q01DX005 (ip), vehicle: saline with Tween-80 90 % of control | [3] 86 % of control and 95 % of control

CCOc1ccc(NC(=S)NC2OC(COC(C)=O)C(OC(C)=O)C(OC(C)=O)C2OC(C)=O)cc1 (centres undefined)
inactive: [3] 101 % of control | [4] 91 % of control | [5] 92 % of control

Cc1nc2sc3c(c2c2ncnn12)CCCC3
inactive: [3] 103 % of control | [4] 98 % of control | [5] 104 % of control

CC(C(=O)O)c1cccc2nc(-c3ccccc3)oc12 (centres undefined)
inactive: [1] 112 % of control | [2] 102 % of control

Clc1cc(=Nc2ccccc2)n2ccccc2n1
inactive: dose: 60.0 mg/kg/injection, schedule: Q01DX005 (ip), vehicle: Klucel (hydroxypropylcellulose) (HPC) 96 % of control | dose: 120.0 mg/kg/injection, schedule: Q01DX005 (ip), vehicle: Klucel (hydroxypropylcellulose) (HPC) 99 % of control | dose: 240.0 mg/kg/injection, schedule: Q01DX005 (ip), vehicle: Klucel (hydroxypropylcellulose) (HPC) 97 % of control

OC(COc1c2ccccc2nc2ccccc12)CN1CCN(c2cccc(Cl)c2)CC1 (centres undefined)
inactive: [3] 90 % of control | [4] 88 % of control | [5] 90 % of control

O=C(c1cc(F)ccc1Nc1ccccc1)N1CCOCC1
inactive: dose: 12.5 mg/kg/injection, schedule: Q01DX009 (ip), vehicle: saline 98 % of control | dose: 25.0 mg/kg/injection, schedule: Q01DX009 (ip), vehicle: saline 100 % of control | [9] 98 % of control and 109 % of control

CC1=C(C#N)C(C)(CCl)C(C#N)=C(C)N1C
inactive: dose: 25.0 mg/kg/injection, schedule: Q01DX009 (ip), vehicle: other 96 % of control | dose: 50.0 mg/kg/injection, schedule: Q01DX009 (ip), vehicle: other 115 % of control | dose: 100.0 mg/kg/injection, schedule: Q01DX009 (ip), vehicle: other 103 % of control

CCCCCOc1ccc(C(=O)/C(Br)=C/C(=O)O)cc1
inactive: dose: 12.5 mg/kg/injection, schedule: Q01DX009 (ip), vehicle: saline with Tween-80 104 % of control | dose: 25.0 mg/kg/injection, schedule: Q01DX009 (ip), vehicle: saline with Tween-80 109 % of control | [12] 123 % of control

O=C1OC(C(O)CO)/C(=N\O)C1O (centres undefined)
inactive: [9] 104 % of control | [10] 104 % of control | [11] 111 % of control

NC(N)=N/N=C/C(O)C(O)C(O)C(O)CO (centres undefined)
inactive: dose: 60.0 mg/kg/injection, schedule: Q01DX005 (ip), vehicle: saline 100 % of control | dose: 120.0 mg/kg/injection, schedule: Q01DX005 (ip), vehicle: saline 100 % of control | dose: 240.0 mg/kg/injection, schedule: Q01DX005 (ip), vehicle: saline 106 % of control

CN(NC(=O)C(=O)NCc1ccco1)C(=O)Nc1ccccc1
inactive: [13] 100 % of control | [14] 99 % of control | [15] 99 % of control

Cc1cccc(C)c1-n1c(C)nc2c(c(C)c(C)n2-c2ccccc2)c1=N
inactive: [13] 101 % of control | [14] 94 % of control

Cc1nc2c([N+](=O)[O-])c(Nc3ccc(O)cc3)c([N+](=O)[O-])cc2[nH]1
inactive: dose: 100.0 mg/kg/injection, schedule: Q04DX003 (ip), vehicle: saline with Tween-80 99 % of control | dose: 200.0 mg/kg/injection, schedule: Q04DX003 (ip), vehicle: saline with Tween-80 92 % of control | dose: 400.0 mg/kg/injection, schedule: Q04DX003 (ip), vehicle: saline with Tween-80 92 % of control

CCCCN(CCCC)CCNC(c1ccc(OC)cc1)c1ccc(OC)cc1
inactive: [3] 98 % of control | [4] 93 % of control | [5] 96 % of control

OC1(c2ccc(C3(O)C(c4ccccc4)=C(c4ccccc4)C(c4ccccc4)=C3c3ccccc3)cc2)C(c2ccccc2)=C(c2ccccc2)C(c2ccccc2)=C1c1ccccc1
inactive: dose: 50.0 mg/kg/injection, schedule: Q01DX009 (ip), vehicle: Klucel (hydroxypropylcellulose) (HPC) 105 % of control | dose: 100.0 mg/kg/injection, schedule: Q01DX009 (ip), vehicle: Klucel (hydroxypropylcellulose) (HPC) 86 % of control | dose: 200.0 mg/kg/injection, schedule: Q01DX009 (ip), vehicle: Klucel (hydroxypropylcellulose) (HPC) 90 % of control
